Test results: EP3263134A1, “COMPOSITION FOR PREVENTING OR TREATING VALVE CALCIFICATION, CONTAINING DPP-4 INHIBITOR” (The Asan Foundation, priority 2015, dated 2016)

What was measured:
NF-κB = NF-κB activity in VSMCs; assay type: cell-based; details: wild-type or eNOS-/- mouse VSMCs (FIG. 7d)
Text: NF-κB activity in VSMCs is inhibited by NO. It was shown that NF-κB activity was higher in eNOS-/- mouse VSMCs than in wild-type mouse VSMCs, and this activity was reduced by treatment with DETA-NO (FIG. 7d). Because the DPP4 promoter has a putative NF-κB binding site, the present inventors determined whether NF-κB activity could directly regulate DPP-4 promoter activity.

DPP-4 promoter = DPP-4 promoter activity in VSMCs (luciferase reporter); assay type: cell-based; details: wild-type or eNOS-/- mouse VSMCs (FIG. 7c)
Description: To obtain more direct evidence for the regulatory function of NO in a decrease in DPP-4 expression, it was determined whether DPP-4 promoter activity would be regulated by NO.
First, VSMCs were cultured in a 6-well plate to reach a confluency of 80%. Using Lipofectamine2000 (Life Technology), a DPP-4 reporter containing a normal or mutated NF-κB binding site was cloned into a pGL3-basic vector (Promega), and the cells were transfected with the vector. After 24 hours, firefly and Renilla luciferase activities in the cells were measured using a Dual-Glo luciferase assay system, (Promega). The firefly luciferase activity was normalized with the Renilla luciferase activity.

DPP-4 [1] = test: DPP-4 mRNA and protein expression in VSMCs (RT-PCR, immunoblot); assay type: cell-based, mouse
Description: (§1) The aortas, extracted from the eNOS-/- mice and the wild-type mice together with the hearts in Example 2, were washed in serum-free M199 (Cellgro), cut to small pieces, and then cultured in M199 containing 20% fetal calf serum and 3 mg/mL collagenase (Sigma) in a water bath at 37°C for 3 hours. […] The isolated vascular smooth muscle cells were seeded at a concentration of 30%, and after 24 hours, the medium was replaced with osteogenic basal medium (Osteogenic SingleQuots, Lonza, USA). The medium was replaced at 3-day intervals during 28 days of culture.
In this Example, vascular smooth muscle cells obtained according to the method of Example 3 were treated with DETA-NONOate (DETA-NO) that is an NO donor.

DPP-4 [2] = details: stated as known; cited from earlier work
[3] = test system: eNOS-/- mouse VSMCs (vascular smooth muscle cells); test: ALP activity, inhibition of osteogenic differentiation of VSMCs; assay type: cell-based; design: dose or concentration left out as unconfirmed; details: of each inhibitor for 7 days, 48-well plate, compared to negative control group not treated with the DPP-4 inhibitor
Description: as §1
In order to examine the effects of DPP-4 inhibitors other than sitagliptin on the inhibition of valvular calcification, the effects of treatment with various kinds of DPP-4 inhibitors on the inhibition of osteogenic differentiation of eNOS-/- mouse VSMCs (vascular smooth muscle cells) were evaluated.
eNOS-/- mouse VSMCs cultured in a 48-well plate were treated with […] of each of alogliptin, evogliptin, linaglipin, saxagliptin and vildagliptin for 7 days, and ALP activity in the cells was measured. As a result, ALP activity inhibition of 50% or lower compared to that in a negative control group not treated with the DPP-4 inhibitor was observed.

[4] = test system: aortic valves from the eNOS-/- mice; test: von Kossa (VK) staining of aortic valve sections; assay type: in vivo; details: eNOS-/- mice after administration of sitagliptin (FIGS. 10a, 10b)
Description: Human aortic valve samples were fixed in 4% formalin solution for 24 hours, and then embedded in paraffin and sectioned to a thickness of 4 µm. In order to observe calcium deposition in the paraffin-embedded aortic valve and the cardiac basal segment, Von Kossa (VK) staining and Alizarin red (AR) staining were performed. For Von Kossa staining, the aortic valve fixed in formalin was washed with distilled water, and then exposed to 5% water-soluble AgNO3 and intense light at room temperature for 60 minutes.
(§2) C57BL/6J eNOS-/- (endothelial nitric oxide synthase knockout) mice (8-week old, n = 10, The Jackson Laboratory, Bar Harbor, Me, USA) and C57BL/6J wild-type mice (8-week old, wide type, WT, n = 10) were used. After purchase, the mice were fed with standard rodent feed up to 3 months of age, and administered with saline or sitagliptin (15 mg/kg/ day, Merck & Co., Inc.) for 12 weeks.

eNOS-/- mice = test: Osteosense680 imaging of aortic calcification / osteogenic activity after oral administration; assay type: in vivo; details: oral sitagliptin 15 mg/kg/day for 12 weeks, Osteosense680 imaging (FIGS. 9a, 9b)
Description: as §2
To detect osteogenic activity in the eNOS-/- mice, a bisphosphonate-conjugated imaging agent (Osteosense680, VisEn Medical Inc.) was injected via the tail vein. Osteosense680 binds to a calcified site (particularly hydroxyapatite) in vivo and acts as an imaging agent to detect osteoblast activity. The mice were euthanized, and then the whole body or isolated aortas were imaged using OptixMX3 (ART Advanced Research Technologies, Inc).

[5] = test system: Human aortic valvular interstitial cells (VICs); test: Osteoblast differentiation (osteogenic ability) of human valvular interstitial cells; assay type: cell-based; details: human VICs treated with DPP-4 plus sitagliptin (FIG. 11)
Description: Using human VICs, the role of DPP-4 in osteoblast differentiation was analyzed.
Human VICs were isolated from aortic valve leaflets according to a conventional cell isolation method, and VIC cells at passage 2 to 10 were used. The VIC cells were incubated with DPP-4 (R & D), sitagliptin or DETA-NONOate (Enzo Life Sciences).

In the case of `NCCN(CCN)[N+]([O-])=NO` [DETA-NO, DETA-NONOate], the NF-κB activity (NF-κB) was “reduced”, the DPP-4 promoter activity (DPP-4 promoter) was “inhibited by treatment with DETA-NO in a concentration-dependent manner” and the “expression of DPP-4 mRNA in the VSMCs” value (DPP-4 [1]; RT-PCR after 24 hours of treatment with DETA-NO (FIG. 7a)) was “decreased”. For the same compound, the “expression of DPP-4 protein in the VSMCs” value (DPP-4 [1]; immunoblot after 48 hours of treatment with DETA-NO (FIG. 7b)) was “also decreased”.

For `COC(=O)[C@@H](N)CCCNC(=N)N[N+](=O)[O-]` [L-NAME, Nω-nitro-L-arginine methyl ester], the “DPP-4 expression in the aorta” value (DPP-4 [2]) is given as “significantly increases DPP-4 expression in the aorta”.

`Cn1c(=O)cc(N2CCC[C@@H](N)C2)n(Cc2ccccc2C#N)c1=O` [alogliptin] gave an ALP activity inhibition [3] of no more than 50%.

Compound `CC(C)(C)OC[C@@H]1C(=O)NCCN1C(=O)C[C@H](N)Cc1cc(F)c(F)cc1F` [evogliptin] has an ALP activity inhibition [3] of no more than 50%.

Work on `CC#CCn1c(N2CCC[C@@H](N)C2)nc2c1c(=O)n(Cc1nc(C)c3ccccc3n1)c(=O)n2C` [linaglipin] yielded an ALP activity inhibition [3] of no more than 50%.

`N#C[C@@H]1C[C@@H]2C[C@@H]2N1C(=O)[C@@H](N)C12CC3CC(CC(O)(C3)C1)C2` [saxagliptin] gave an ALP activity inhibition [3] of no more than 50%.

For `N[C@@H](CC(=O)N1CCn2c(nnc2C(F)(F)F)C1)Cc1cc(F)c(F)cc1F` [sitagliptin], the “aortic calcification in VK-stained sections of the aortic valves” value [4] was “aortic calcification can be inhibited”, the “aortic calcification in the living mice” value (eNOS-/- mice) was “reduced aortic calcification” and the “DPP-4-induced increase of the osteogenic ability of VICs” value [5] was “eliminated”.

`N#C[C@@H]1CCCN1C(=O)CNC12CC3CC(CC(O)(C3)C1)C2` [vildagliptin] gave an ALP activity inhibition [3] of no more than 50%.
